Measurements: patent publication US12371428B2 (Exelixis, Inc., priority 2019, dated 2025)

Key:
[1] = target: Human MER (residues 528-999) (Homo sapiens (Human), UniProt Q12866); assay: Human Mer kinase assay, HTRF KinEase (Example C-2); assay type: biochemical; settings: protocol of Example C-2
Procedure, shortened: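 IC50 values from 10 concentrations via 4-parameter logistic fit of […], with DMSO as 100% and 1 μM reference compound as 0% activity. Reaction: MER kinase domain 528-999, 1 ng/well, 40 μM ATP (Km), biotin peptide, 5 mM MgCl2, 1 mM DTT, 3% DMSO, room temperature 60 min; HTRF streptavidin-XL665/Eu-antibody detection.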

[2] = target: Human MET (residues 956-1390) (Homo sapiens (Human), UniProt P08581); assay: Human Met kinase assay, HTRF KinEase (Example D-2); assay type: biochemical; settings: protocol of Example D-2; read-out: c-Met IC50
Human MET (residues 956-1390), sequence (P08581 956-1390): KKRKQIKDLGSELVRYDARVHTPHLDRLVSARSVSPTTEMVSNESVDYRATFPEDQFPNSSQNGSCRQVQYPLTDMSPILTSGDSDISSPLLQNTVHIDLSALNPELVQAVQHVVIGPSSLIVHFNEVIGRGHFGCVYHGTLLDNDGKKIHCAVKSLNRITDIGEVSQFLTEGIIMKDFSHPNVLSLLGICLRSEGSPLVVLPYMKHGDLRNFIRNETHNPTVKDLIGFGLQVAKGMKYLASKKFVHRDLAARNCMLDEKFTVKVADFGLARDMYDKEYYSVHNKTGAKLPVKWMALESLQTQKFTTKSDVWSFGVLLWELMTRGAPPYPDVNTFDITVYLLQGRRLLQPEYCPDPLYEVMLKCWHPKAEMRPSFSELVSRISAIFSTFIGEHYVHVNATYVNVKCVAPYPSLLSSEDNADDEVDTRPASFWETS
Procedure, shortened: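 IC50 values come from a 4-parameter logistic fit of the […] fluorescence ratio, set between DMSO (100%) and reference compound at 1 μM (0%). Reactions held MET 956-1390 at 0.1 ng/well, ATP at Km, biotinylated peptide, 5 mM MgCl2, 1 mM MnCl2, 1 mM DTT and 3% DMSO, and ran 40 min at room temperature before streptavidin-XL665/Eu-antibody detection.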

[3] = target: Met (phospho-Met, HGF-stimulated PC-3 prostate cancer cells) (Homo sapiens (Human), UniProt P08581); assay: Met autophosphorylation ELISA in PC-3 cells (Example F); assay type: cell-based; settings: cellular activity; Met autophosphorylation ELISA in PC-3 cells; read-out: c-Met IC50
Met (phospho-Met, HGF-stimulated PC-3 prostate cancer cells), sequence (P08581 25-1390): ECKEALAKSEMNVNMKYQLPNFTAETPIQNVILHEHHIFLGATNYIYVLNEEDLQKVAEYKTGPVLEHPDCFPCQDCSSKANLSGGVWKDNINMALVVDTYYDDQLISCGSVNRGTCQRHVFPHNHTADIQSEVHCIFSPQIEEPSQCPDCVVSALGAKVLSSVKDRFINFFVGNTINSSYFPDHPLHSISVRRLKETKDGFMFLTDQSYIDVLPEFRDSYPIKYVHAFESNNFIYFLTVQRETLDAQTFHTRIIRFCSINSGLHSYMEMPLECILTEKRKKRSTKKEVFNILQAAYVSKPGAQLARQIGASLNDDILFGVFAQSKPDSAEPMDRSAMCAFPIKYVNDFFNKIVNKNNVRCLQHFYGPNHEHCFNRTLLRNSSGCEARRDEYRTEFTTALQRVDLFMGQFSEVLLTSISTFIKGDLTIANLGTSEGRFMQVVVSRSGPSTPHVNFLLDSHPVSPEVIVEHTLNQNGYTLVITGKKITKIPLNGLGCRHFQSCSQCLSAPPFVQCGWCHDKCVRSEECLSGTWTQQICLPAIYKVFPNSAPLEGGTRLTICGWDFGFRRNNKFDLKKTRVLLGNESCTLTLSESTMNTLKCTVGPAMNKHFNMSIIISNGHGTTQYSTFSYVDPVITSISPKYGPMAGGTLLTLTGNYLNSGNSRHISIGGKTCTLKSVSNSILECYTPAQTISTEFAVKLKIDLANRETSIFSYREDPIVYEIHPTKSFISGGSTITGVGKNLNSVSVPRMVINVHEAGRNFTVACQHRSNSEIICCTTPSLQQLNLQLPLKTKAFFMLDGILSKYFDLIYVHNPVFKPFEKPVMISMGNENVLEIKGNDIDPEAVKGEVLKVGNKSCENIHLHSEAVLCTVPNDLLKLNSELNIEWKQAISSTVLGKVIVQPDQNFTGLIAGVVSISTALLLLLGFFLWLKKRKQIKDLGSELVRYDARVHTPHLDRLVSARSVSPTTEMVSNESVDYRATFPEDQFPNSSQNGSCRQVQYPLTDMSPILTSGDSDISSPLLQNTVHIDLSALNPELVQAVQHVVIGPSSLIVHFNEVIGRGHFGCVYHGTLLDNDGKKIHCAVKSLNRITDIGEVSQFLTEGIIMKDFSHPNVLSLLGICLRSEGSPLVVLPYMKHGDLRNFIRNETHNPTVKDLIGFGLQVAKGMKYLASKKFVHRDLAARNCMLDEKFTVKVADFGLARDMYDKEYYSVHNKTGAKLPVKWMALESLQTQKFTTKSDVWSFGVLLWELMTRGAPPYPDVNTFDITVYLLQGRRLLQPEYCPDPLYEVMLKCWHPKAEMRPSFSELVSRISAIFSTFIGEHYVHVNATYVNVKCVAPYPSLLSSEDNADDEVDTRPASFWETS
Procedure, shortened: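 Compounds were tested on HGF-stimulated PC-3 cells. After 24 h culture and 3 h serum starvation, cells got compound for 1 h and 100 ng/mL HGF for 10 min, and Met tyrosine phosphorylation was measured by ELISA.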

[4] = target: KDR (phospho-KDR, VEGF165-stimulated HUVEC cells) (Homo sapiens (Human), UniProt P35968); assay: KDR autophosphorylation ELISA in HUVEC cells (Example G); assay type: cell-based; settings: cellular activity; KDR autophosphorylation ELISA in HUVEC cells
KDR (phospho-KDR, VEGF165-stimulated HUVEC cells), sequence (P35968 20-1356): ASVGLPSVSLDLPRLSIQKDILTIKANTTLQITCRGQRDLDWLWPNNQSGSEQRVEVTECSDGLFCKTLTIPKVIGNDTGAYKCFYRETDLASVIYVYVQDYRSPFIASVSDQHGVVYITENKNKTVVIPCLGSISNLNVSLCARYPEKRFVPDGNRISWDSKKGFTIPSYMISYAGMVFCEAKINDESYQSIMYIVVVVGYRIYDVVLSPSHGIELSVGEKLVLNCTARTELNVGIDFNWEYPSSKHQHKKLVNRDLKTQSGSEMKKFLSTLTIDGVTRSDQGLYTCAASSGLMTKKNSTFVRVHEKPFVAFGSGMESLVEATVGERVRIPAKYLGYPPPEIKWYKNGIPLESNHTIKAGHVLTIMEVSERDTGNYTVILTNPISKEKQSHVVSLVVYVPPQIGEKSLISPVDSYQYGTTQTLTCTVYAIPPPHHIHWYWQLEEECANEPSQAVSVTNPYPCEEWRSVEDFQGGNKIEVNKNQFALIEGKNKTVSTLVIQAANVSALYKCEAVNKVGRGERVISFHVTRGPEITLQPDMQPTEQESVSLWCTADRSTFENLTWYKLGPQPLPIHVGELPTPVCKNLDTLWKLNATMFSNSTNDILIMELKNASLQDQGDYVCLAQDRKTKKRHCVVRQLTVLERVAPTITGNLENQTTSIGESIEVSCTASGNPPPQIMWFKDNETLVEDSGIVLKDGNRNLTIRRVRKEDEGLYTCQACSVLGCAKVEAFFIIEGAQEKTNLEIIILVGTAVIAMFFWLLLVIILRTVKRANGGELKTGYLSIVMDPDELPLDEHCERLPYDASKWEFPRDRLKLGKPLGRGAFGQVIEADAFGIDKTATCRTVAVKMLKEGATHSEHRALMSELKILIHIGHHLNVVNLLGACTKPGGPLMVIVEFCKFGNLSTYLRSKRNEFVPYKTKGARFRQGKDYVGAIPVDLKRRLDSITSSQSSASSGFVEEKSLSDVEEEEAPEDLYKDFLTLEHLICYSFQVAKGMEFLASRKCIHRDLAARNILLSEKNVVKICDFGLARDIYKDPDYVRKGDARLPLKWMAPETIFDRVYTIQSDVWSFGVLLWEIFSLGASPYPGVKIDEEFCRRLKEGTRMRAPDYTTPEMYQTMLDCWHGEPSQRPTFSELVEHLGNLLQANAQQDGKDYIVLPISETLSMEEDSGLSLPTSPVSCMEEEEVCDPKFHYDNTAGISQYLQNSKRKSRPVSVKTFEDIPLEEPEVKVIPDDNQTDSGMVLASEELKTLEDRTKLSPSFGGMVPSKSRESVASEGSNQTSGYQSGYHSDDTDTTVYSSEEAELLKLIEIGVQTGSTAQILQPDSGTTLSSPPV
Procedure, shortened: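 Inhibition of VEGF165-driven KDR autophosphorylation is measured in primary human umbilical vein endothelial cells after 24 h serum deprivation. Compound preincubation lasts 1 h before a 5-minute challenge with 100 ng/mL ligand, and phosphorylated receptor is then measured by ELISA in the lysates.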

Human MER (residues 528-999), sequence (Q12866 528-999): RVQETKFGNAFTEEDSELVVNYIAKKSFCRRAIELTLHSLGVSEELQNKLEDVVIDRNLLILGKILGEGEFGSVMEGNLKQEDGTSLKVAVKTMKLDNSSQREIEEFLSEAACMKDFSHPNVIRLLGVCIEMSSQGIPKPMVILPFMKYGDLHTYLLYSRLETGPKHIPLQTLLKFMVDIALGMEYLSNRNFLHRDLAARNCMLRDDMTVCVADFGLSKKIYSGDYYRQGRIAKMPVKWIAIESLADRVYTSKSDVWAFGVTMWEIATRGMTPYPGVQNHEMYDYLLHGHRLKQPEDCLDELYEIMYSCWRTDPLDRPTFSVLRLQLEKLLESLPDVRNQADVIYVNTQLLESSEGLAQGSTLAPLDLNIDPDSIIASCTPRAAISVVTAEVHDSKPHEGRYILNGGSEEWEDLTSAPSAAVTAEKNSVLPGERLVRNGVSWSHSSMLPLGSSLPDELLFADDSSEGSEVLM

For `C=C(C)c1cnc2c(Oc3ccc(NC(=O)c4cnc(C)c(-c5ccc(F)cc5C)c4O)cc3)ccnc2c1` [Compound 448, 5-(4-fluoro-2-methylphenyl)-4-hydroxy-6-methyl-N-[4-[(7-prop-1-en-2-yl-1,5-naphthyridin-4-yl)oxy]phenyl]pyridine-3-carboxamide], the IC50 [1] was < 100 nM, the IC50 [2] was < 100 nM and the IC50 [3] was < 100 nM. For the same compound, the IC50 [4] was < 100 nM.
For `C=C(C)c1cnc2c(Oc3ccc(NC(=O)c4cnc(C)c(-c5ccc(F)cc5C)c4O)cc3F)ccnc2c1` [Compound 450, 5-(4-fluoro-2-methylphenyl)-N-[3-fluoro-4-[(7-prop-1-en-2-yl-1,5-naphthyridin-4-yl)oxy]phenyl]-4-hydroxy-6-methylpyridine-3-carboxamide], the IC50 [1] was < 100 nM, the IC50 [2] was < 100 nM and the IC50 [3] was < 100 nM. The IC50 [4] was < 100 nM.
In the case of `C=C(C)c1cnc2c(Oc3ccc(NC(=O)c4c(C)nc(C)c(-c5ccc(F)cc5)c4O)cc3F)ccnc2c1` [Compound 451, 5-(4-fluorophenyl)-N-[3-fluoro-4-[(7-prop-1-en-2-yl-1,5-naphthyridin-4-yl)oxy]phenyl]-4-hydroxy-2,6-dimethylpyridine-3-carboxamide], the IC50 [1] is reported as < 100 nM, the IC50 [2] is reported as < 100 nM and the IC50 [3] is reported as < 100 nM. The IC50 [4] was < 100 nM.
In the case of `C=C(C)c1cnc2c(Oc3ccc(NC(=O)c4cnc(C)c(-c5ccc(F)cc5)c4O)cc3)ccnc2c1` [Compound 454, 5-(4-fluorophenyl)-4-hydroxy-6-methyl-N-[4-[(7-prop-1-en-2-yl-1,5-naphthyridin-4-yl)oxy]phenyl]pyridine-3-carboxamide], the IC50 [1] is reported as < 100 nM, the IC50 [2] is reported as < 100 nM and the IC50 [3] is reported as < 100 nM. The IC50 [4] was < 100 nM.
For `C=C(C)c1cnc2c(Oc3ccc(NC(=O)c4c(C)nc(C)c(-c5ccc(F)cc5)c4O)cc3)ccnc2c1` [Compound 455, 5-(4-fluorophenyl)-4-hydroxy-2,6-dimethyl-N-[4-[(7-prop-1-en-2-yl-1,5-naphthyridin-4-yl)oxy]phenyl]pyridine-3-carboxamide], the IC50 [1] was < 100 nM, the IC50 [2] was < 100 nM and the IC50 [3] was < 100 nM. The IC50 [4] was < 100 nM.
With `C=C(C)c1cnc2c(Oc3ccc(NC(=O)c4cnc(C)c(-c5ccc(F)cc5)c4O)cc3F)ccnc2c1` [Compound 456, 5-(4-fluorophenyl)-N-[3-fluoro-4-[(7-prop-1-en-2-yl-1,5-naphthyridin-4-yl)oxy]phenyl]-4-hydroxy-6-methylpyridine-3-carboxamide] the IC50 [1] was < 100 nM, the IC50 [2] was < 100 nM and the IC50 [3] was < 100 nM. For the same compound, the IC50 [4] was < 100 nM.
In the case of `C=C(C)c1cnc2c(Oc3ccc(NC(=O)c4c(C)cc(C)n(-c5ccc(F)cc5)c4=O)cc3F)ccnc2c1` [Compound 457, 1-(4-fluorophenyl)-N-[3-fluoro-4-[(7-prop-1-en-2-yl-1,5-naphthyridin-4-yl)oxy]phenyl]-4,6-dimethyl-2-oxopyridine-3-carboxamide], the IC50 [1] is reported as < 100 nM, the IC50 [2] is reported as < 100 nM and the IC50 [3] is reported as < 100 nM. The IC50 [4] was < 100 nM.
In the case of `COc1nc2c(Oc3ccc(NC(=O)c4cnc(C)c(-c5ccc(F)cc5)c4O)cc3F)ccnc2cc1C` [Compound 458, N-[3-fluoro-4-[(6-methoxy-7-methyl-1,5-naphthyridin-4-yl)oxy]phenyl]-5-(4-fluorophenyl)-4-hydroxy-6-methylpyridine-3-carboxamide], the IC50 [1] is reported as < 100 nM, the IC50 [2] is reported as 100 to 300 nM and the IC50 [3] is reported as < 100 nM. The IC50 [4] was < 100 nM.
In the case of `COc1nc2c(Oc3ccc(NC(=O)c4c(C)nc(C)c(-c5ccc(F)cc5)c4O)cc3F)ccnc2cc1C` [Compound 459, N-[3-fluoro-4-[(6-methoxy-7-methyl-1,5-naphthyridin-4-yl)oxy]phenyl]-5-(4-fluorophenyl)-4-hydroxy-2,6-dimethylpyridine-3-carboxamide], the IC50 [1] is reported as < 100 nM, the IC50 [2] is reported as 100 to 300 nM and the IC50 [3] is reported as < 100 nM. The IC50 [4] was < 100 nM.
